We go through 26 compounds from patent US10660877B2 (BRISTOL-MYERS SQUIBB COMPANY, priority 2016, dated 2020).

Like-named read-outs stand apart in the source and are kept apart here.

In general, IC50 refers to the concentration that inhibits the measured activity by half.

The target in assay [1] is human TLR9 (Homo sapiens (Human), UniProt Q9NR96). In words: TLR9 inhibition reporter assay (HEK-Blue cells, SEAP reporter, ODN2006 stimulation).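 Further: compounds tested over 0.05 nM to 50 µM, 22 h incubation, inhibition taken as SEAP signal drop from agonist plus DMSO wells toward a known inhibitor control.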 Background: In a reporter assay the amount or activity of a reporter protein is the signal.
Chain of human TLR9 (Q9NR96 26-1032): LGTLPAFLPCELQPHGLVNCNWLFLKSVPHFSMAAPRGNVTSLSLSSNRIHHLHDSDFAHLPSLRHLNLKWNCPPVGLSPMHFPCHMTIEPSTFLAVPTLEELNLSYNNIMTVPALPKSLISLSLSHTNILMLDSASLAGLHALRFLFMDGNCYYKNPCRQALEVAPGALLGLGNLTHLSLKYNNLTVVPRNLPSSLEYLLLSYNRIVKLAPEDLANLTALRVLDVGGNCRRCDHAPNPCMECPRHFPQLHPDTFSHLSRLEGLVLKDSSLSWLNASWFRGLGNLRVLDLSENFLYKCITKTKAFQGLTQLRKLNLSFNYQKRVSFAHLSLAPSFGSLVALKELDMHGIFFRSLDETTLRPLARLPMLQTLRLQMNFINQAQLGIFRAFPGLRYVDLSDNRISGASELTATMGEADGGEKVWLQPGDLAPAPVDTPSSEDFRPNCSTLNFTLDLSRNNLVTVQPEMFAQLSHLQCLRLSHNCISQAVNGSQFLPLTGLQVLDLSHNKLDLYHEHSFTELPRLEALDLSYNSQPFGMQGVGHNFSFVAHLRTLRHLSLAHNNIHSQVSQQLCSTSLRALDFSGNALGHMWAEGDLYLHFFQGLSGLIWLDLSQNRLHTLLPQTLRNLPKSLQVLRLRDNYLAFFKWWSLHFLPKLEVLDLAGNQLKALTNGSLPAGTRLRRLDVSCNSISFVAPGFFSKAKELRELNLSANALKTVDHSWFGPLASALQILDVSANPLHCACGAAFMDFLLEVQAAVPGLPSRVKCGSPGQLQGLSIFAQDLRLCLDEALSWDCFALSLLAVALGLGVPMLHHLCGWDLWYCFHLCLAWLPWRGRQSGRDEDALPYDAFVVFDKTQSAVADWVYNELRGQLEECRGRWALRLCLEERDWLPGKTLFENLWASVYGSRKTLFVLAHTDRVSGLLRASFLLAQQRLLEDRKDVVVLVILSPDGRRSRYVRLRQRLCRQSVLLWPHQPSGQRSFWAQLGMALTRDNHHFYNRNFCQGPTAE
Assay [2] concerns the target human TLR7 (Homo sapiens (Human), UniProt Q9NYK1). The assay can be described thus: TLR7 inhibition reporter assay (HEK-Blue cells, SEAP reporter, gardiquimod stimulation). Format: cell-based.
The target of assay [3] is human TLR8 (Homo sapiens (Human), UniProt Q9NR97). The assay can be described thus: TLR8 inhibition reporter assay (HEK-Blue cells, SEAP reporter, R848 stimulation).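 Further: compounds tested from 0.05 nM to 50 µM, 22 h at 37 °C, SEAP measured with HEK-Blue Detection, inhibition relative to agonist plus DMSO versus a known inhibitor.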
Chain of human TLR8 (Q9NR97 27-1041): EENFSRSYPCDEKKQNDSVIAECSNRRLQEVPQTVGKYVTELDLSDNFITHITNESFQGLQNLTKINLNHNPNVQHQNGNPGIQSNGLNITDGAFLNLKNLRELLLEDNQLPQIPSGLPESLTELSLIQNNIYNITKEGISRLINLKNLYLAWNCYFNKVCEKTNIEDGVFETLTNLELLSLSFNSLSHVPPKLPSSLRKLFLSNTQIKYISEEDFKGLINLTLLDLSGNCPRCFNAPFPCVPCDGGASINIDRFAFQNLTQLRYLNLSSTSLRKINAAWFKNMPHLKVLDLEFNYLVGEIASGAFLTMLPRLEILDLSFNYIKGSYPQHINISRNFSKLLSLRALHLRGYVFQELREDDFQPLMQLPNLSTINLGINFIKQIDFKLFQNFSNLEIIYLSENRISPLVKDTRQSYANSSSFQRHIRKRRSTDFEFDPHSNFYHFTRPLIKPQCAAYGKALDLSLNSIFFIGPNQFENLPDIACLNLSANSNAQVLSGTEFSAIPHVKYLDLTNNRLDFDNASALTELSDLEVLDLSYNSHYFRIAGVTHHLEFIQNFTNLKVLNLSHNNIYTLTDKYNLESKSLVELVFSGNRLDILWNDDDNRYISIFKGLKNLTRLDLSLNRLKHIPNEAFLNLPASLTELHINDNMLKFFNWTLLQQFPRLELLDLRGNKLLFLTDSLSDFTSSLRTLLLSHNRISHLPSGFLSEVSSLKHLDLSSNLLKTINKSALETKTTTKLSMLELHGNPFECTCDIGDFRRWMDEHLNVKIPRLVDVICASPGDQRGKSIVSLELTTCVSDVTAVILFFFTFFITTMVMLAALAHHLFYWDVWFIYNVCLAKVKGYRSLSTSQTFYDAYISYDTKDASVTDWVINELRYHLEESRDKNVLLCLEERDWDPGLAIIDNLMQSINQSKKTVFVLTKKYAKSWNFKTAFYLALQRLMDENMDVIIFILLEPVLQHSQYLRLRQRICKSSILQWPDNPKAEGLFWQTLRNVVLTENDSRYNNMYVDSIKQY
[4] abbreviates: read-out: TLR9 IC50, HEK-Blue cells overexpressing human TLR9, ODN2006 5 nM.
[5] abbreviates: HEK-Blue cells overexpressing human TLR7, gardiquimod 7.5 μM.
Where [6] appears, read: read-out: TLR8 IC50, HEK-Blue cells overexpressing human TLR8, R848 15.9 μM.
The mark [7] stands for this setting: read-out: TLR9 IC50, HEK-Blue cells, ODN2006 5 nM.
[8] abbreviates: HEK-Blue cells, gardiquimod 7.5 μM.
Where [9] appears, read: read-out: TLR8 IC50, HEK-Blue cells, R848 15.9 μM.

Chain of human TLR7 (Q9NYK1 27-1049): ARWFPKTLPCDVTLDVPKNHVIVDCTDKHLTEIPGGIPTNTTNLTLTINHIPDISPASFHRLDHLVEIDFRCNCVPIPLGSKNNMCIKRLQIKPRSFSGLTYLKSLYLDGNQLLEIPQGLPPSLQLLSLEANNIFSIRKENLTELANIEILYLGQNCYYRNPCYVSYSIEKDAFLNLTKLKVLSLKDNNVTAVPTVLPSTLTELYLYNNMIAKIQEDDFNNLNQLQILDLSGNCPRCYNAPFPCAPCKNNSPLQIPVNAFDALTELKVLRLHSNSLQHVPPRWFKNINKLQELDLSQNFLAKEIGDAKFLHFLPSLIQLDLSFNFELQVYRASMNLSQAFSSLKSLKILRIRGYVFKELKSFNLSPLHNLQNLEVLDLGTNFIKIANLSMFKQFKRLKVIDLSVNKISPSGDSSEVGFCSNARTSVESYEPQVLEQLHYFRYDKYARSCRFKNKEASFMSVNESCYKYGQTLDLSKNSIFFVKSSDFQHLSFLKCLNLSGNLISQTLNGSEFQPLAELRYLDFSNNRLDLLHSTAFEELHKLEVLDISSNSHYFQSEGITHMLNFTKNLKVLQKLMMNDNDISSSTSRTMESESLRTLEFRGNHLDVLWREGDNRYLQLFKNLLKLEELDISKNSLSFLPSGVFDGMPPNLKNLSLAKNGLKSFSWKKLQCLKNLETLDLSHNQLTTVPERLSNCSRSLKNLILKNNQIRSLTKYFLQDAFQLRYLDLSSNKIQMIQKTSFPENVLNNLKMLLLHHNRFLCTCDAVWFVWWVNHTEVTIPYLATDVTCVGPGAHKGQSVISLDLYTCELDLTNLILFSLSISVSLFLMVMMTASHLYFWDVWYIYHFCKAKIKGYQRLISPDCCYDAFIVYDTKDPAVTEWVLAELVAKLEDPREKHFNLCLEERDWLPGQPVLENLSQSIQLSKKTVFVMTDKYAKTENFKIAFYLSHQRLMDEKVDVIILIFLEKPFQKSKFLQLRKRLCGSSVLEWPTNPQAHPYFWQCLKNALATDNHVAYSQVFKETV

Regarding `Cc1cc(-c2[nH]c3ccc(C4CCN(CC(=O)NC5(C)CC5)CC4)cc3c2C(C)C)cc(C)n1` [Example 251, 2-(4-(2-(2,6-dimethylpyridin-4-yl)-3-isopropyl-1H-indol-5-yl)piperidin-1-yl)-N-(1-methylcyclopropyl)acetamide], the values for the half-inhibitory concentration (IC50) in assay [1] (setting [4]), in assay [2] (setting [5]) and in assay [3] (setting [6]) were 817 nM, 4.3 nM and 9 nM, respectively.
In the case of `Cc1cc(-c2[nH]c3ccc(C4CCN(C(=O)CNC56CC7CC(CC(C7)C5)C6)CC4)cc3c2C(C)C)cc(C)n1` [Example 342, 2-(adamantan-1-ylamino)-1-(4-(2-(2,6-dimethylpyridin-4-yl)-3-isopropyl-1H-indol-5-yl)piperidin-1-yl)ethan-1-one], the IC50 in assay [1] (setting [4]) is 656 nM; in assay [2] (setting [5]) it was 26.2 nM; in assay [3] (setting [6]) it was 67.1 nM.
Take `Cc1cc(-c2[nH]c3ccc(C4CCN(C(=O)[C@@H](N)CCCCN)CC4)cc3c2C(C)C)ccn1` [Example 579, (S)-2,6-diamino-1-(4-(3-isopropyl-2-(2-methylpyridin-4-yl)-1H-indol-5-yl)piperidin-1-yl)hexan-1-one]: the IC50 turned out to be 4360 nM in assay [1] (setting [4]), 201 nM in assay [2] (setting [5]) and 98 nM in assay [3] (setting [6]).
Turning to `Cc1cc(-c2[nH]c3ccc(C4CCN(Cc5cnc[nH]5)CC4)cc3c2C(C)C)ccn1` [Example 820, 5-(1-((1H-imidazol-5-yl)methyl)piperidin-4-yl)-3-isopropyl-2-(2-methylpyridin-4-yl)-1H-indole], the values for the IC50 in assay [1] (setting [7]), in assay [2] (setting [8]) and in assay [3] (setting [9]) were 209 nM, 71.5 nM and 5.8 nM, respectively.
Turning to `CCc1c(-c2ccnc(OC)c2)[nH]c2ccc(C3CCN(C4C[C@H]5CC[C@@H](C4)N5C)CC3)cc12` (stereo partly drawn) [Example 791, 3-ethyl-2-(2-methoxypyridin-4-yl)-5-(1-((1R,3s,5S)-8-methyl-8-azabicyclo[3.2.1]octan-3-yl)piperidin-4-yl)-1H-indole], the 50% inhibitory concentration (IC50) in assay [1] (setting [4]) is 1600 nM; in assay [2] (setting [5]), 666 nM; in assay [3] (setting [6]) it was 158 nM.
With `CCc1c(-c2ccnc(C)c2)[nH]c2ccc(C3CCN(CC(=O)O)CC3)cc12` [Example 876, 2-(4-(3-ethyl-2-(2-methylpyridin-4-yl)-1H-indol-5-yl)piperidin-1-yl)acetic acid], the IC50 in assay [1] (setting [7]) is 46700 nM; in assay [2] (setting [8]) it was 958 nM; in assay [3] (setting [9]), 1940 nM.
Turning to `Cc1cc(-c2[nH]c3ccc(C4CCNCC4)cc3c2C(C)C)c([N+](=O)[O-])c(C)n1` [Example 27, 2-(2,6-dimethyl-3-nitropyridin-4-yl)-3-isopropyl-5-(piperidin-4-yl)-1H-indole], the concentration for half-maximal inhibition (IC50) in assay [1] (setting [4]) is 2970 nM; in assay [2] (setting [5]) it was 15.1 nM; in assay [3] (setting [6]), 8.9 nM.
On the same counts, the results for `C=C(c1c(-c2cc(C)nc(C)c2)[nH]c2ccc(C3CCNCC3)cc12)C(F)(F)F` [Example 91, 2-(2,6-dimethylpyridin-4-yl)-5-(piperidin-4-yl)-3-(3,3,3-trifluoroprop-1-en-2-yl)-1H-indole] are 92 nM, 3.2 nM and 15.3 nM.
With `Cc1cc(-c2[nH]c3ccc(C4CCN(C5CCCNC5O)CC4)cc3c2C(C)C)ccn1` (stereo not drawn) [Example 702, 4-(3-isopropyl-2-(2-methylpyridin-4-yl)-1H-indol-5-yl)-[1,3′-bipiperidin]-2′-ol], the half-inhibitory concentration (IC50) in assay [1] (setting [4]) worked out at 432 nM; in assay [2] (setting [5]), 14.4 nM; in assay [3] (setting [6]) it was 2.9 nM.
Regarding `CCN(CC)CCCN1CCC(c2ccc3[nH]c(-c4cc(C)nc(C)c4)c(C(C)C)c3c2)CC1` [Example 671, 3-(4-(2-(2,6-dimethylpyridin-4-yl)-3-isopropyl-1H-indol-5-yl)piperidin-1-yl)-N,N-diethylpropan-1-amine], the results for the IC50 in assay [1] (setting [4]), in assay [2] (setting [5]) and in assay [3] (setting [6]) were 76 nM, 0.6 nM and 2.6 nM, respectively.
For `Cc1cc(-c2[nH]c3ccc(C4CCN(Cc5cncs5)CC4)cc3c2C(C)C)cc(C)n1` [Example 444, 5-((4-(2-(2,6-dimethylpyridin-4-yl)-3-isopropyl-1H-indol-5-yl)piperidin-1-yl)methyl)thiazole], in that order: 617 nM, 3.3 nM and 1.6 nM.
On to `Cc1cc(-c2[nH]c3ccc(C4CCN(Cc5nncn5C)CC4)cc3c2C(C)C)cc(C)n1` [Example 464, 2-(2,6-dimethylpyridin-4-yl)-3-isopropyl-5-(1-((4-methyl-4H-1,2,4-triazol-3-yl)methyl)piperidin-4-yl)-1H-indole], for which the concentration for half-maximal inhibition (IC50) was 2560 nM in assay [1] (setting [4]), 6.3 nM in assay [2] (setting [5]) and 6.3 nM in assay [3] (setting [6]).
`Cc1cc(-c2[nH]c3ccc(C4CCN(CC(F)F)CC4)cc3c2C(C)C)ccn1` [Example 660, 5-(1-(2,2-difluoroethyl)piperidin-4-yl)-3-isopropyl-2-(2-methylpyridin-4-yl)-1H-indole]: the concentration for half-maximal inhibition (IC50) in assay [1] (setting [4]) was above 50000 nM; in assay [2] (setting [5]), 104 nM; in assay [3] (setting [6]), 78.9 nM.
For the compound `Cc1cc(-c2[nH]c3ccc(C4CCN(C(=O)CNC56CC7CC(CC(O)(C7)C5)C6)CC4)cc3c2C(C)C)cc(C)n1` [Example 343, 1-(4-(2-(2,6-dimethylpyridin-4-yl)-3-isopropyl-1H-indol-5-yl)piperidin-1-yl)-2-((3-hydroxyadamantan-1-yl)amino)ethan-1-one], the half-inhibitory concentration (IC50) in assay [1] (setting [4]) came to 685 nM; in assay [2] (setting [5]) it was 9.8 nM; in assay [3] (setting [6]), 20.3 nM.
Consider `CCc1c(-c2ccnc(OC)c2)[nH]c2ccc(C3CCN(C4CCN(C(C)C)CC4)CC3)cc12` [Example 786, 3-ethyl-5-(1′-isopropyl-[1,4′-bipiperidin]-4-yl)-2-(2-methoxypyridin-4-yl)-1H-indole], for which the half-maximal inhibitory concentration (IC50) in assay [1] (setting [4]) worked out at 206 nM; in assay [2] (setting [5]), 309 nM; in assay [3] (setting [6]), 50.4 nM.
`CC(=O)N1CCC(c2ccc3[nH]c(-c4cc(C)nc(C)c4)c(C(C)C)c3c2)CC1` [Example 174, 1-(4-(2-(2,6-dimethylpyridin-4-yl)-3-isopropyl-1H-indol-5-yl)piperidin-1-yl)ethan-1-one]: the IC50 stood at 35100 nM in assay [1] (setting [4]), 5.5 nM in assay [2] (setting [5]) and 81.1 nM in assay [3] (setting [6]).
`Cc1cc(-c2[nH]c3ccc(C4CCN(S(=O)(=O)CC(F)(F)F)CC4)cc3c2C(C)C)ccn1` [Example 546, 3-isopropyl-2-(2-methylpyridin-4-yl)-5-(1-((2,2,2-trifluoroethyl)sulfonyl)piperidin-4-yl)-1H-indole]: the figures for the half-maximal inhibitory concentration (IC50) in assay [1] (setting [4]), in assay [2] (setting [5]) and in assay [3] (setting [6]) were above 50000 nM, 164 nM and 820 nM, respectively.
As to `Cc1cc(-c2[nH]c3ccc(C4CCN(Cc5cncnc5)CC4)cc3c2C(C)C)cc(C)n1` [Example 434, 2-(2,6-dimethylpyridin-4-yl)-3-isopropyl-5-(1-(pyrimidin-5-ylmethyl)piperidin-4-yl)-1H-indole], the IC50 in assay [1] (TLR9 IC50, HEK-Blue cells overexpressing human TLR9, ODN2006 5 nM) stood at 755 nM; in assay [2] (setting [5]), 35.3 nM; in assay [3] (TLR8 IC50, HEK-Blue cells overexpressing human TLR8, R848 15.9 μM) it was 10.5 nM.
Regarding `CCc1c(-c2ccnc(N)c2)[nH]c2ccc([C@@H]3CCNC[C@@H]3F)cc12` [491-A], the concentration for half-maximal inhibition (IC50) in assay [1] (setting [4]) stood at 354 nM; in assay [2] (setting [5]), 156 nM; in assay [3] (setting [6]) it was 110 nM.
With `Cc1cc(-c2[nH]c3ccc(C4CCN(C5COC5)CC4)cc3c2C(C)C)c(F)c(C)n1` [Example 729, 2-(3-fluoro-2,6-dimethylpyridin-4-yl)-3-isopropyl-5-(1-(oxetan-3-yl)piperidin-4-yl)-1H-indole], the figures for the concentration for half-maximal inhibition (IC50) in assay [1] (setting [4]), in assay [2] (setting [5]) and in assay [3] (setting [6]) were 3620 nM, 10.1 nM and 33.6 nM, respectively.
On the same counts, the results for `Cc1cc(-c2[nH]c3ccc(C4CCN(CCO)CC4)cc3c2C(C)C)c(F)cn1` [Example 647, 2-(4-(2-(5-fluoro-2-methylpyridin-4-yl)-3-isopropyl-1H-indol-5-yl)piperidin-1-yl)ethan-1-ol] are 2660 nM, 3.9 nM and 2.3 nM.
Turning to `CCc1c(-c2ccnc(C)c2)[nH]c2ccc(C3CCN(C(=O)c4ccncc4)CC3)cc12` [Example 591, (4-(3-ethyl-2-(2-methylpyridin-4-yl)-1H-indol-5-yl)piperidin-1-yl)(pyridin-4-yl)methanone], the IC50 in assay [1] (setting [4]) was found to be 15400 nM; in assay [2] (setting [5]), 251 nM; in assay [3] (setting [6]), 241 nM.
On to `Cc1cc(-c2[nH]c3ccc(C4CCN(C(=O)C(=O)N(C)C)CC4)cc3c2C(C)C)ccn1` [Example 878, 2-(4-(3-isopropyl-2-(2-methylpyridin-4-yl)-1H-indol-5-yl)piperidin-1-yl)-N,N-dimethyl-2-oxoacetamide], for which the half-inhibitory concentration (IC50) turned out to be 28000 nM in assay [1] (setting [7]), 55.1 nM in assay [2] (setting [8]) and 175 nM in assay [3] (setting [9]).
Turning to `Cc1cc(-c2[nH]c3ccc(C4CCN(Cc5ncn(C)n5)CC4)cc3c2C(C)C)c(C)cn1` [Example 723, 2-(2,5-dimethylpyridin-4-yl)-3-isopropyl-5-(1-((1-methyl-1H-1,2,4-triazol-3-yl)methyl)piperidin-4-yl)-1H-indole], the IC50 amounted to 14500 nM in assay [1] (setting [4]), 78.4 nM in assay [2] (setting [5]) and 8.4 nM in assay [3] (setting [6]).
As for `Cc1cc(-c2[nH]c3ccc(C4CCN(C5COC5)CC4)cc3c2C(C)C)c(C)cn1` [Example 722, 2-(2,5-dimethylpyridin-4-yl)-3-isopropyl-5-(1-(oxetan-3-yl)piperidin-4-yl)-1H-indole], the IC50 was 5890 nM in assay [1] (setting [4]), 24.4 nM in assay [2] (setting [5]) and 6.3 nM in assay [3] (setting [6]).
Turning to `Cc1cc(-c2[nH]c3ccc(C4CCN(C(=O)CN(C)C)CC4)cc3c2C(C)C)cc(F)n1` [Example 501, 2-(dimethylamino)-1-(4-(2-(2-fluoro-6-methylpyridin-4-yl)-3-isopropyl-1H-indol-5-yl)piperidin-1-yl)ethan-1-one], the values for the IC50 in assay [1] (setting [4]), in assay [2] (setting [5]) and in assay [3] (setting [6]) were 992 nM, 5.5 nM and 30.3 nM, respectively.
